Data set [1] addresses T1, TEL-binding protein (GRO-binding protein/nucleolin, MDA-MB-231 nuclear extracts) (Homo sapiens, UniProt P19338).
T1 construct: Nuclear and cytoplasmic extracts from MDA-MB-231 cells were prepared using the protocol described in F. M. Ausubel et al; endogenous in cells; host or cells: MDA-MB-231 nuclear extract, prepared in house
The data set is described as follows: Competitive EMSA, labeled TEL and MDA-MB-231 nuclear extracts. The settings on record: for competition with TEL for binding to the nuclear protein: unlabeled competitor, 10-fold molar excess, FIG. 7B. Background: Mobility shift assays separate free from complexed probe on a gel.

The nature of data set [2]: Detection of G-quartets by UV thermal denaturation/renaturation. It is filed as physicochemical. The settings on record: absorbance at 295 nm; for G-quartet formation (UV annealing curve): FIG. 4. On the procedure: Oligonucleotides were resuspended in Tm buffer (20 mM Tris HCl, pH 8.0, 140 mM KCl, 2.5 mM MgCl2) at a concentration such that A260=0.6 (molar concentrations ranged from […]). Samples were annealed by boiling for five minutes and allowing to cool slowly to room temperature and overnight incubation at 4° C. Thermal denaturation/renaturation experiments were carried out using an Amersham Pharmacia Biotech Ultrospec 2000 instrument equipped with a Peltier effect heated cuvette holder and temperature controller (Amersham Pharmacia Biotech). Absorbance at 295 nm was monitored over a temperature range of 25-95 or 20-90° C. at a heating/cooling rate of 0.5° C./min. To investigate the formation of G-quartet structures by the G-rich oligonucleotides, a U.V. melting technique described by […] et al. (1998) FEBS Lett. 435, 74-78 was used. This method relies on the fact that dissociation of G-quartets leads to a decrease in absorbance at 295 nm and is reported to give a more reliable indication of intramolecular G-quartet formation than measurement at 260 nm.

Data set [3] addresses T2, GRO-binding protein/nucleolin (HeLa nuclear extracts) (Homo sapiens, UniProt P19338).
T2 construct: HeLa nuclear extracts used in EMSAs were purchased from Promega Inc. (bandshift grade); host or cells: HeLa nuclear extract (bandshift grade), purchased
The data set is described as follows: UV cross-linking of oligonucleotides to HeLa nuclear extracts. The conditions noted are these: labeled oligonucleotide with HeLa nuclear extracts; FIG. 6C. On the procedure:
For the UV crosslinking experiments, samples were incubated as described above (EMSA). They were then placed on ice and irradiated at 5 cm from the source using the “autocross link” function of a Stratagene UV Stratalinker. Following irradiation, samples were electrophoresed under denaturing conditions on a 8% polyacrylamide-SDS gel using a standard Tris glycine buffer and visualized by autoradiography.
To determine the approximate molecular weight of the protein involved in complex A, and to confirm that competition for this complex results from direct binding of the protein to oligonucleotides, a UV cross-linking study was conducted. 5′-Labeled oligonucleotides and HeLa nuclear extracts were incubated alone or in the presence of unlabeled competitor oligonucleotides.
The samples were then irradiated with UV light resulting in cross-link formation between protein residues and thymidines in the oligonucleotide. The protein was thus radiolabeled and could be detected on a SDS-polyacrylamide gel.

Data set [4] concerns MDA-MB-231 breast cancer cells. The data set is described as follows: MTT cell growth assay, MDA-MB-231 cells. The settings on record: for antiproliferative activity, MDA-MB-231: single 10 uM dose, FIG. 7A. The class given is cell-based, human. On the procedure: Cells were plated at low density ([…] cells per well, depending on cell line) in the appropriate serum-supplemented medium in 96-well plates (one plate per MTT assay time point) and grown under standard conditions of cell culture. The following day (day 1) oligonucleotide, or water as control, was added to the culture medium to give a final concentration of 15 uM. Further oligonucleotide, equivalent to half the initial dose, was added to the culture medium on days two, three and four. Cells were assayed using the MTT assay (Morgan (1998) Methods. Mol. Biol. 79, 179-183) on days one, three, five, seven and nine after plating. The culture medium was not changed throughout the duration of the experiment (which was the time required for untreated cells to grow to confluence). Experiments were performed in triplicate and bars represent the standard error of the data. For the experiment shown in FIG. 7A, MDA-MB-231 breast cancer cells (5×10^2 cells per well) were plated in a 96-well plate. After twenty-four hours, a single dose of oligonucleotide, or equal volume of PBS as a control, was added to the culture medium to a final concentration of 10 uM. Viable cells were assessed seven days after plating using the MTT assay. For the experiment using 3′-unmodified oligonucleotides (FIG. 7D), serum-supplemented medium was replaced by serum-free medium containing oligonucleotide (or serum-free medium alone in control wells). After incubation at 37° C. for four hours, fetal calf serum (Life Technologies, Inc.) was added to the medium to give 10% v/v.
Background: Tetrazolium assays rely on reduction of a dye to a coloured formazan, in cell work by metabolically active cells.

Data set [5] deals with T3, 106 kDa nuclear protein (p106, GRO-binding protein/nucleolin) (Homo sapiens, UniProt P19338).
T3 construct: HeLa nuclear extracts used in EMSAs were purchased from Promega Inc. (bandshift grade); host or cells: HeLa nuclear extract (bandshift grade), purchased
T3 sequence (P19338 whole entry): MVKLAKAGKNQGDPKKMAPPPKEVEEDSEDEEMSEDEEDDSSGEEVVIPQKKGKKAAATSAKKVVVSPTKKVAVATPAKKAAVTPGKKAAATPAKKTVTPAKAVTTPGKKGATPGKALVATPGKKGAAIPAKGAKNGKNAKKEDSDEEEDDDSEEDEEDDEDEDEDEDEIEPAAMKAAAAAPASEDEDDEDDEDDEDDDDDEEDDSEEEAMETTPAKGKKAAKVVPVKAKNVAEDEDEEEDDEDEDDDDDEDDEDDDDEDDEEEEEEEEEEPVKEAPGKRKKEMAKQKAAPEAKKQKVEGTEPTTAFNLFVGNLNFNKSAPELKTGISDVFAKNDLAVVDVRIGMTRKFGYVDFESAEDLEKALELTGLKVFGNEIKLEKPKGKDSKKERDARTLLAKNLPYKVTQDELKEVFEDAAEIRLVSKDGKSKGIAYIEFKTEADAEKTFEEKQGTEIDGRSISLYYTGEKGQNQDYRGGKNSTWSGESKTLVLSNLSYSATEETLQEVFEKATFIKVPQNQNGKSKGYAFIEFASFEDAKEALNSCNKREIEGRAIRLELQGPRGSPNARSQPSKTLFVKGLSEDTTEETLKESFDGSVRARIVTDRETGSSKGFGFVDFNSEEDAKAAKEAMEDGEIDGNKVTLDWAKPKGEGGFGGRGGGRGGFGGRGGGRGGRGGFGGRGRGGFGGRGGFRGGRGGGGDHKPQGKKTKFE
The data set is described as follows: Southwestern blot of HeLa nuclear extracts. The conditions noted are these: 32P-labeled oligonucleotide, 4° C.; FIG. 6D. On the procedure:
Nuclear extracts were electrophoresed on a 8% polyacrylamide-SDS gel and transferred to polyvinylidene difluoride (PVDF) membrane by electroblotting using a Tris glycine/methanol (10% v/v) buffer. Immobilized proteins were denatured and renatured by washing for thirty minutes at 4° C. with 6 M guanidine. HCl followed by washes in 1:1, 1:2 and 1:4 dilutions of 6M guanidine in HEPES binding buffer (25 mM HEPES pH 7.9, 4 mM KCl, 3 mM MgCl2). The membrane was blocked by washing for one hour in a 5% solution of non-fat dried milk (NDM) in binding buffer.
Hybridization of the labeled oligonucleotide (1-4×10^6 cpm) took place for two hours at 4° C. in HEPES binding buffer supplemented with 0.25% NDM, 0.05% Nonidet P […] salmon sperm DNA and […] of an unrelated, mixed sequence 35-mer oligonucleotide (5′-[…] CTTCCTTCCTCTCCA-3′SEQ ID No: 19). Membranes were washed in binding buffer and visualized by autoradiography.
The molecular weight of the nuclear protein was more accurately determined by Southwestern blotting. HeLa nuclear extracts were electrophoresed on an 8% polyacrylamide-SDS gel and transferred to a PVDF membrane. The membrane was blocked and cut into strips. Each strip was incubated at 4° C. with a 32P-labeled G-rich oligonucleotide in the presence of unrelated unlabeled double stranded and single stranded DNA to block non-specific binding.

Data set [6] has as its target T4, G-rich oligonucleotide binding protein / nucleolin (Homo sapiens, UniProt P19338).
T4 construct: endogenous in cells; MDA-MB-231)
The data set is described as follows: Protein binding, summary statements (EMSA). The settings on record: summary statement. The text has this: (§1) By G-rich oligonucleotide (GRO) it is meant that the oligonucleotides consist of 4-100 nucleotides (preferably 10-30 nucleotides) with DNA, RNA, 2′-O-methyl, phosphorothioate or other chemically similar backbones. Their sequences contain one or more GGT motifs. The oligonucleotides have antiproliferative activity against cells and bind to GRO binding protein and/or nucleolin.
Additionally, the present invention provides a method for selecting oligonucleotides that bind to nucleolin. The method utilizes an electrophoretic mobility shift assay (EMSA), as described below, to screen for oligonucleotides that bind strongly to nucleolin and which, therefore, would be expected, according to the present invention, to have anti-proliferative activity. Oligonucleotides to be screened as potential antiproliferative agents are labeled and then incubated with nuclear extracts in the absence or presence of unlabeled competitor oligonucleotide and are allowed to react. The reaction mixtures are then electrophoresed and mobility shifts and/or bond intensity can be used to identify those oligonucleotides which have bound to the specific protein.
Alternatively, unlabeled compounds to be screened are incubated with nuclear extracts in the presence of labeled oligonucleotide (for example 5′-TTAGGGTTAGGGTTAGGG TTAGGG) (SEQ ID NO: 20) and binding is assessed by a decrease in the intensity of the shifted band, as in FIG. 6B.

Data set [7] deals with breast cancer cells. The data set is described as follows: Summary statements on growth of breast cancer cells / antiproliferative activity. The class given is cell-based. The conditions noted are these: for antiproliferative activity: cells not given; for modulate the growth of breast cancer cells and/or compete for binding to the G-rich oligonucleotide binding protein (EMSA): and/or statement, FIGS. 6 and 7.
From the text: as §1

T4 sequence (P19338 whole entry): as above
T1 sequence (P19338 whole entry): as above
T2 sequence (P19338 whole entry): as above

“5′-TTAGGGTTAGGGTTAGGGTTAGGG [TEL, reference compound]”: the “competition for protein binding in competitive EMSA” value in data set [1] (10 nM unlabeled oligonucleotide, […]) is given as “competed strongly”. In data set [2], the “G-quartet formation (UV annealing curve)” value is on record as “clear transition”. Further, the “melting temperature of G-quartet transition” value in data set [2] (Tm buffer pH 8.0, 140 mM KCl, 0.5° C./min) came to 66 °C. Further, the “UV cross-linked protein complex (approximately 100 kDa)” value in data set [3] is listed as “crosslinked to a protein”. Further, the “growth of MDA-MB-231 cells, unmodified oligonucleotides” value in data set [4] (10 uM in serum-free medium 4 h, then 10% fetal calf serum, day 7, FIG. 7D) is listed as “modulated the growth of cells”.
Turning to “GRO15B: inactive G-rich oligonucleotide, SEQ ID NO: 22 (TTGGGGGGGGTGGGT; DNA, backbone not given here; further chemistry not fully specified)”, the “hybridization to protein band at 106 kDa (Southwestern blot)” value in data set [5] is recorded as “hybridized only weakly”. In data set [2], the “G-quartet formation (UV annealing curve)” value is listed as “no transition characteristic of intramolecular G-quartet formation”. Further, in data set [4], the “antiproliferative activity, MDA-MB-231” value is “inactive”.
“5′-TTTGGTGGTGGT GGTGTGGTGGTGGTGG-3′ (TTTGGTGGTGGTGGTGTGGTGGTGGTGG; DNA, backbone not given here; further chemistry not fully specified) [GR028B]”: the protein binding entry in data set [6] is on record as “protein binding”. Besides, the antiproliferative activity result in data set [7] is “demonstrated antiproliferative activity”.
Turning to “5′-TGGTGGTGGTGGT-3′ (DNA, backbone not given here; further chemistry not fully specified) [GR029-13]”, in data set [7], the “modulate the growth of breast cancer cells and/or compete for binding to the G-rich oligonucleotide binding protein (EMSA)” value (shortened to “modulate the growth”) was “have been shown to modulate the growth of breast cancer cells and/or to compete for binding”.
For the substance “5′-TTTGGTGGTGGTGGTGGTGGTGGTGGTGG-3′ (aptamer; DNA, backbone not given here; further chemistry not fully specified) [GR029-3]”, the protein binding entry in data set [6] was “protein binding”. Moreover, in data set [7], the “modulate the growth” value is listed as “have been shown to modulate the growth of breast cancer cells and/or to compete for binding” and the antiproliferative activity result is “demonstrated antiproliferative activity”.
On to “5′-GTTGTTTGGGGTGG-3′ (DNA, backbone not given here; further chemistry not fully specified) [GRO14A]”, for which the “competition with TEL for binding to the nuclear protein” value (shortened to “competition with TEL for binding”) in data set [1] is on record as “able to compete”. Moreover, the “antiproliferative activity, MDA-MB-231” value in data set [4] is on record as “moderate antiproliferative activity”.
Turning to “5′-TTTGGTGG TGGTGGTTTTGGTGGTGGTGG-3′ (TTTGGTGGTGGTGGTTTTGGTGGTGGTGG; aptamer; DNA, backbone not given here; further chemistry not fully specified) [GR029-2]”, the protein binding entry in data set [6] was “protein binding”. Also, in data set [7], the “modulate the growth” value is listed as “have been shown to modulate the growth of breast cancer cells and/or to compete for binding” and the antiproliferative activity entry is “demonstrated antiproliferative activity”.
As to “5′-GGTTGGGGTGGGTGGGGTG GGTGGG-3′ (GGTTGGGGTGGGTGGGGTGGGTGGG; DNA, backbone not given here; further chemistry not fully specified) [GR025A]”, the “competition with TEL for binding” value in data set [1] is “able to compete”. The “antiproliferative activity, MDA-MB-231” value in data set [4] is given as “moderate antiproliferative activity”.
On to “5′-TTTGGTGGTGGTGGTTTGGGTGGTGG TGG-3′ (TTTGGTGGTGGTGGTTTGGGTGGTGGTGG; aptamer; DNA, backbone not given here; further chemistry not fully specified) [GR029-5]”, for which, in data set [6], the protein binding result is recorded as “protein binding”. In addition, in data set [7], the “modulate the growth” value is recorded as “have been shown to modulate the growth of breast cancer cells and/or to compete for binding” and the antiproliferative activity entry was “demonstrated antiproliferative activity”.
For heparin [reference compound], the “competition for protein binding in competitive EMSA, heparin” value in data set [1] (0.02 units/ml (approximately 0.12 ug/ml)) is on record as “No competition”. In addition, in data set [4] (20 units/ml (approximately 0.12 mg/ml), FIG. 7C), the “growth of MDA-MB-231 cells, heparin” value is given as “no effect on cell growth”.
Take “5′-GGTGGTGGTGGTTGT GGTGGTGGTGGTTT-3′ (GGTGGTGGTGGTTGTGGTGGTGGTGGTTT; DNA, backbone not given here; further chemistry not fully specified) [GR029-6]”: the protein binding result in data set [6] is “protein binding”. Moreover, in data set [7], the antiproliferative activity entry was “demonstrated antiproliferative activity”.
As for “5′-TTTGGTGGTGGTGGTTGTGG TGGTGGTG-3′ (TTTGGTGGTGGTGGTTGTGGTGGTGGTG; DNA, backbone not given here; further chemistry not fully specified) [GR028A]”, in data set [1], the “competition with TEL for binding” value is “able to compete”. In addition, the “antiproliferative activity, MDA-MB-231” value in data set [4] was “moderate antiproliferative activity”.

Source of the values: US8114850B2, “Antiproliferative activity of G-rich oligonucleotides and method of using same to bind to nucleolin” (Advanced Cancer Therapeutics, LLC, priority 1999, dated 2012).
